Patent publication US20140228287A1, “1-[(3-CYANO-PYRIDIN-2-YL)METHYL]-3-METHYL-7-(2-BUTYN-1-YL)-8-[3-(R)-AMINO-PIPERIDIN-1-YL]-AXANTHINE FOR THE TREATMENT OF A METABOLIC DISORDER OF A PREDOMINANTLY CARNIVOROUS NON-HUMAN ANIMAL” (BOEHRINGER INGELHEIM VETMEDICA GMBH, priority 2010, published 2014)
Where a name gives a salt, the structure may show the parent alone. Read-outs that look alike come from different tables or passages of the source.

Key:
[1] = test system: plasma DPP IV; assay: Plasma DPP IV activity after oral administration, Beagle dog; format: in vivo; conditions: 3 mg/kg oral, 24 hours post dose
Method: (§1) The effect of 1-[(3-cyano-pyridin-2-yl)methyl]-3-methyl-7-(2-butyn-1-yl)-8-[3-(R)-amino-piperidin-1-yl]-xanthine on plasma DPP IV activity after oral administration was investigated in the rat, the Beagle dog and the Rhesus monkey. These investigations were conducted as described in the following.
Overnight fasted male Beagle dogs (n=4 per group) were administered oral doses of 1-[(3-cyano-pyridin-2-yl)methyl]-3-methyl-7-(2-butyn-1-yl)-8-[3-(R)-amino-piperidin-1-yl]-xanthine monohydrochloride at 3 and 12 mg/kg body weight. Blood samples were drawn from a butterfly inserted in either the right or left forearm vein. Blood was collected in EDTA tubes prior to administration of 1-[(3-cyano-pyridin-2-yl)methyl]-3-methyl-7-(2-butyn-1-yl)-8-[3-(R)-amino-piperidin-1-yl]-xanthine monohydrochloride and subsequently at 1, 2, 4, 8, and 24 hour time points post dose. Plasma was prepared following blood collection and frozen for determination of DPP-IV activity.

[2] = molecular target: T1, DPP IV (Felis catus, UniProt Q9N2I7); assay: DPP IV activity in obese/non-obese cats, 7 days once daily dosing; format: in vivo, cat; conditions: 9 mg daily, percent of 0 h
T1 construct: Blood samples for the determination of this compound and DPP IV activity were collected; from tissue; host or cells: plasma of domestic short hair / purpose-bred cats dosed orally
Text: The aim of this exploratory, randomized, placebo controlled crossover study was to investigate the effect of 1-[(3-cyano-pyridin-2-yl)methyl]-3-methyl-7-(2-butyn-1-yl)-8-[3-(R)-amino-piperidin-1-yl]-xanthine monohydrochloride on DPP IV activity and on glucose concentrations in obese and non-obese cats after repeated oral administration over seven days.
Fourteen clinically healthy male and female (8 obese and 6 non-obese) purpose-bred cats were used in this study. The animals were randomly allocated to two groups of cats, obese and non-obese, and treated in a cross-over design with 9 mg 1-[(3-cyano-pyridin-2-yl)methyl]-3-methyl-7-(2-butyn-1-yl)-8-[3-(R)-amino-piperidin-1-yl]-xanthine monohydrochloride or placebo, once daily for 7 days, with a following wash-out period of 21 days.
Cats were fed once daily 40 min after administration of the compound or the placebo, respectively.
In parallel, DPP IV activity was assessed as above.

[3] = test system: plasma DPP IV; assay: Plasma DPP IV activity after oral administration, Rhesus monkey; format: in vivo; conditions: 1 mg/kg oral, 24 hours post dose
Method: as §1
Overnight fasted Rhesus monkeys (n=4; 2 males and 2 females) were administered oral doses of 1-[(3-cyano-pyridin-2-yl)methyl]-3-methyl-7-(2-butyn-1-yl)-8-[3-(R)-amino-piperidin-1-yl]-xanthine monohydrochloride at 1 mg/kg bw. Blood samples were drawn from a butterfly that was inserted into a forearm vein of restrained monkeys. Blood was collected in EDTA tubes prior to administration of 1-[(3-cyano-pyridin-2-yl)methyl]-3-methyl-7-(2-butyn-1-yl)-8-[3-(R)-amino-piperidin-1-yl]-xanthine monohydrochloride and subsequently at 0.5, 1, 2, 4, 8, 24, 48, and 72 hour time points post dose. Plasma was prepared following blood collection and frozen for determination of DPP-IV activity.

[4] = molecular target: T1, DPP IV; assay: OGTT study in normal cats after 9 mg per cat: DPP IV activity; format: in vivo; conditions: 9 mg per cat oral
Method: An OGTT like in Example 11 was performed in […] beginning 1 h after oral administration of 9 mg 1-[(3-cyano-pyridin-2-yl)methyl]-3-methyl-7-(2-butyn-1-yl)-8-[3-(R)-amino-piperidin-1-yl]-xanthine monohydrochloride or placebo (2 groups with 6 animals each; 3 male and 3 females per group).

[5] = molecular target: T1, DPP IV; assay: 60-Day tolerability study of tablets in cats: relative DPP IV activity; format: in vivo, cat; conditions: percent of day 2 predose
Method: This study was conducted in order to examine the long-term tolerability of a pharmaceutical composition comprising 1-[(3-cyano-pyridin-2-yl)methyl]-3-methyl-7-(2-butyn-1-yl)-8-[3-(R)-amino-piperidin-1-yl]-xanthine monohydrochloride in cats after repeated oral administration for 60-days.
For this purpose, the compound according to the invention has been admixed with standard ingredients to a scored, oblong, brown tablet, size 10×5.5 mm, comprising 1-[(3-cyano-pyridin-2-yl)methyl]-3-methyl-7-(2-butyn-1-yl)-8-[3-(R)-amino-piperidin-1-yl]-xanthine monohydrochloride at 21.68 mg of the chloride per tablet (which equals 20 mg of the free base) and 10% meat flavour.
20 male healthy non-obese cats (Domestic short hair feline) supplied by Liberty Research, Inc., Waverly, N.Y., USA, of an age of 13 to 20 months were used. After an adaptation period of 4 weeks, they were separated into three groups: group 1 (6 members, no. 1 to 6) for placebo treatment, group 2 (7 members, no. 7 to 13) for treatment with 20 mg/cat, group 3 (7 members, no. 14 to 20) for treatment with 40 mg/cat. They were treated once daily in the morning, orally with the respective tablet(s) for 60 days. All animals had fasted over night and were fed 4 hours after the administration. Drinking water was offered ad libitum. Housing conditions etc. were kept constant and equally for all animals; they were kept in groups during the adaptation period and singly during the experimental period.
Relative DPP-IV activity was measured as described above.

T1 sequence (Q9N2I7 38-765 limits assumed): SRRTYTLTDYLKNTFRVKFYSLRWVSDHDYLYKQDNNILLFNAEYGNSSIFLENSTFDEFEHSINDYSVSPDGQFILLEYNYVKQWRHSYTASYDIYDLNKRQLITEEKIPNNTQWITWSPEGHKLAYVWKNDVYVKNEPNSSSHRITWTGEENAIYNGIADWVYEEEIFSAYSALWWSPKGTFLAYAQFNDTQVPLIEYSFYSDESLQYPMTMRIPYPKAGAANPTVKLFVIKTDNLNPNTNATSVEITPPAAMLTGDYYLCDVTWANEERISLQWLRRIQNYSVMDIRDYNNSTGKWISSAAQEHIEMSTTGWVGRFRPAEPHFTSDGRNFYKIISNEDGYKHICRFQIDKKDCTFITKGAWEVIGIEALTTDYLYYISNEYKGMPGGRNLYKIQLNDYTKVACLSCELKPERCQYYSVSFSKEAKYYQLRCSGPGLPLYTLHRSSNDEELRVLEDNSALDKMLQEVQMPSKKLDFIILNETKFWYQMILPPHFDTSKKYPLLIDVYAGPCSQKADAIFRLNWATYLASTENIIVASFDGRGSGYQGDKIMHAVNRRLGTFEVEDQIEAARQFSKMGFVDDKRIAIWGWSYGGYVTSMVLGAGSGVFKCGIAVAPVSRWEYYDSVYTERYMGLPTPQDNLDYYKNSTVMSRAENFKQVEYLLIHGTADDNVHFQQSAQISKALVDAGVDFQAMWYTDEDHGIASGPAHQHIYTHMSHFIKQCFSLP

Q: Which “inhibition of plasma DPP IV activity” value [1] does the source give for `CC#CCn1c(N2CCC[C@@H](N)C2)nc2c1c(=O)n(Cc1ncccc1C#N)c(=O)n2C` [1-[(3-cyano-pyridin-2-yl)methyl]-3-methyl-7-(2-butyn-1-yl)-8-[3-(R)-amino-piperidin-1-yl]-xanthine monohydrochloride] here?
A: The value was 76%.

Q: And the activity at 9 mg ([2]; Non-obese cats (n = 6), 1 h, read-out: DPP-IV activity %, Max)?
A: The activity at 9 mg was 25.4%.

Q: And the activity at 9 mg ([2]; Non-obese cats (n = 6), 1 h, read-out: DPP-IV activity %, Mean ± STD)?
A: Its activity at 9 mg is 13.8 ± 5.8%.

Q: And the activity at 9 mg ([2]; Non-obese cats (n = 6), 1 h, read-out: DPP-IV activity %, Median)?
A: Its activity at 9 mg is 11.3%.

Q: What about the activity at 9 mg ([2]; Non-obese cats (n = 6), 1 h, read-out: DPP-IV activity %, Min) of the same compound?
A: The activity at 9 mg was 8.4%.

Q: What about the activity at 9 mg ([2]; Non-obese cats (n = 6), 6 h, read-out: DPP-IV activity %, Max) of the same compound?
A: Its activity at 9 mg is 25%.

Q: What about the activity at 9 mg ([2]; Non-obese cats (n = 6), 6 h, read-out: DPP-IV activity %, Mean ± STD) of the same compound?
A: The activity at 9 mg was 14.4 ± 5.7%.

Q: What about the activity at 9 mg ([2]; Non-obese cats (n = 6), 6 h, read-out: DPP-IV activity %, Median) of the same compound?
A: The activity at 9 mg was 11.4%.

Q: What about the activity at 9 mg ([2]; Non-obese cats (n = 6), 6 h, read-out: DPP-IV activity %, Min) of the same compound?
A: The activity at 9 mg was 9.5%.

Q: And the activity at 9 mg ([2]; Non-obese cats (n = 6), 24 h, read-out: DPP-IV activity %, Max)?
A: The activity at 9 mg was 45.1%.

Q: And the activity at 9 mg ([2]; Non-obese cats (n = 6), 24 h, read-out: DPP-IV activity %, Mean ± STD)?
A: The activity at 9 mg was 20.1 ± 12%.

Q: And the activity at 9 mg ([2]; Non-obese cats (n = 6), 24 h, read-out: DPP-IV activity %, Median)?
A: Its activity at 9 mg is 15.3%.

Q: What about the activity at 9 mg ([2]; Non-obese cats (n = 6), 24 h, read-out: DPP-IV activity %, Min) of the same compound?
A: Its activity at 9 mg is 8.6%.

Q: What about the activity at 9 mg ([2]; Non-obese cats (n = 6), 72 h, read-out: DPP-IV activity %, Max) of the same compound?
A: Its activity at 9 mg is 27.9%.

Q: What about the activity at 9 mg ([2]; Non-obese cats (n = 6), 72 h, read-out: DPP-IV activity %, Mean ± STD) of the same compound?
A: The activity at 9 mg was 18.2 ± 6%.

Q: And the activity at 9 mg ([2]; Non-obese cats (n = 6), 72 h, read-out: DPP-IV activity %, Median)?
A: Its activity at 9 mg is 18.9%.

Q: And the activity at 9 mg ([2]; Non-obese cats (n = 6), 72 h, read-out: DPP-IV activity %, Min)?
A: Its activity at 9 mg is 8.5%.

Q: What about the activity at 9 mg ([2]; Non-obese cats (n = 6), 168 h, read-out: DPP-IV activity %, Max) of the same compound?
A: The activity at 9 mg was 23.5%.

Q: And the activity at 9 mg ([2]; Non-obese cats (n = 6), 168 h, read-out: DPP-IV activity %, Mean ± STD)?
A: The activity at 9 mg was 17.4 ± 4.7%.

Q: And the activity at 9 mg ([2]; Non-obese cats (n = 6), 168 h, read-out: DPP-IV activity %, Median)?
A: The activity at 9 mg was 18.2%.

Q: What about the activity at 9 mg ([2]; Non-obese cats (n = 6), 168 h, read-out: DPP-IV activity %, Min) of the same compound?
A: Its activity at 9 mg is 10.6%.

Q: What about the activity at 9 mg ([2]; Obese cats (n = 8), 1 h, read-out: DPP-IV activity %, Max) of the same compound?
A: The activity at 9 mg was 17.5%.

Q: And the activity at 9 mg ([2]; Obese cats (n = 8), 1 h, read-out: DPP-IV activity %, Mean ± STD)?
A: Its activity at 9 mg is 12.1 ± 4%.

Q: What about the activity at 9 mg ([2]; Obese cats (n = 8), 1 h, read-out: DPP-IV activity %, Median) of the same compound?
A: The activity at 9 mg was 11.1%.

Q: And the activity at 9 mg ([2]; Obese cats (n = 8), 1 h, read-out: DPP-IV activity %, Min)?
A: Its activity at 9 mg is 7.5%.

Q: What about the activity at 9 mg ([2]; Obese cats (n = 8), 6 h, read-out: DPP-IV activity %, Max) of the same compound?
A: The activity at 9 mg was 20%.

Q: And the activity at 9 mg ([2]; Obese cats (n = 8), 6 h, read-out: DPP-IV activity %, Mean ± STD)?
A: The activity at 9 mg was 11.9 ± 3.9%.

Q: What about the activity at 9 mg ([2]; Obese cats (n = 8), 6 h, read-out: DPP-IV activity %, Median) of the same compound?
A: The activity at 9 mg was 10.5%.

Q: What about the activity at 9 mg ([2]; Obese cats (n = 8), 6 h, read-out: DPP-IV activity %, Min) of the same compound?
A: The activity at 9 mg was 7.4%.

Q: And the activity at 9 mg ([2]; Obese cats (n = 8), 24 h, read-out: DPP-IV activity %, Max)?
A: Its activity at 9 mg is 26.5%.

Q: And the activity at 9 mg ([2]; Obese cats (n = 8), 24 h, read-out: DPP-IV activity %, Mean ± STD)?
A: The activity at 9 mg was 17 ± 5.2%.

Q: What about the activity at 9 mg ([2]; Obese cats (n = 8), 24 h, read-out: DPP-IV activity %, Median) of the same compound?
A: The activity at 9 mg was 15.4%.

Q: And the activity at 9 mg ([2]; Obese cats (n = 8), 24 h, read-out: DPP-IV activity %, Min)?
A: Its activity at 9 mg is 11.4%.

Q: What about the activity at 9 mg ([2]; Obese cats (n = 8), 72 h, read-out: DPP-IV activity %, Max) of the same compound?
A: The activity at 9 mg was 23.9%.

Q: And the activity at 9 mg ([2]; Obese cats (n = 8), 72 h, read-out: DPP-IV activity %, Mean ± STD)?
A: The activity at 9 mg was 18.4 ± 4.4%.

Q: And the activity at 9 mg ([2]; Obese cats (n = 8), 72 h, read-out: DPP-IV activity %, Median)?
A: Its activity at 9 mg is 18.5%.

Q: And the activity at 9 mg ([2]; Obese cats (n = 8), 72 h, read-out: DPP-IV activity %, Min)?
A: Its activity at 9 mg is 12.2%.

Q: What about the activity at 9 mg ([2]; Obese cats (n = 8), 168 h, read-out: DPP-IV activity %, Max) of the same compound?
A: Its activity at 9 mg is 39.8%.

Q: What about the activity at 9 mg ([2]; Obese cats (n = 8), 168 h, read-out: DPP-IV activity %, Mean ± STD) of the same compound?
A: Its activity at 9 mg is 19.9 ± 9%.

Q: And the activity at 9 mg ([2]; Obese cats (n = 8), 168 h, read-out: DPP-IV activity %, Median)?
A: The activity at 9 mg was 19.2%.

Q: And the activity at 9 mg ([2]; Obese cats (n = 8), 168 h, read-out: DPP-IV activity %, Min)?
A: The activity at 9 mg was 8.6%.

Q: What about the “inhibition of plasma DPP IV activity” value [3] of the same compound?
A: The value was 54%.

Q: And the “inhibition of DPP IV activity” value [4]?
A: Its value is “more than 80%”.

Q: And the “Relative DPP IV activity” value ([5]; Group no. 2 (20 mg daily tablets), Treatment day 60 (1 h after dose))?
A: Its value is 11%.

Q: What about the “Relative DPP IV activity” value ([5]; Group no. 2, excl. animal no. 8 (20 mg daily tablets), Treatment day 60 (predose)) of the same compound?
A: The value was 17%.

Q: And the “Relative DPP IV activity” value ([5]; Group no. 3 (40 mg daily tablets), Treatment day 60 (1 h after dose))?
A: Its value is 10%.

Q: And the “Relative DPP IV activity” value ([5]; Group no. 3 (40 mg daily tablets), Treatment day 60 (predose))?
A: Its value is 16%.
